Test systems include DMS 273 small cell lung; SN12K1 renal; P388 leukemia; HOP-18 NSCLC; XF 498 CNS; DMS 114 small cell lung; P388/ADR leukemia; RXF-631 renal; LXFL 529 NSCLC.
Holding throughout (test): NCI tumour cell line growth inhibition, 48 h

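Compound exposure: 48 hours, 5 concentrations, 96-well plates. The concentration for full growth arrest is given as TGI.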

`N/C(=N\N=C\c1ncccc1O)NO`: the TGI was > 59.4 µM in the test on DMS 273 small cell lung; > 69 µM in the test with SN12K1 renal; 12.8 µM in the test on P388 leukemia; > 100 µM with HOP-18 NSCLC; 69.2 µM in the test with XF 498 CNS; > 100 µM with DMS 114 small cell lung. In the test on P388/ADR leukemia, this compound showed a TGI of 11.5 µM.

With `O=c1c2ccccc2nc2ccc3c(Cl)[nH][nH]c3c12`, the TGI in the test with RXF-631 renal, in the test with DMS 273 small cell lung, with HOP-18 NSCLC, in the test with LXFL 529 NSCLC and with DMS 114 small cell lung was > 100 µM throughout.

For the compound `Cc1c2ccncc2c(C)c2c1[nH]c1ccc(OCCN(C)C)cc12`, the TGI was 0.321 µM in the test with DMS 273 small cell lung; 0.381 µM in the test with SN12K1 renal; 0.0675 µM in the test on P388 leukemia; 2.76 µM in the test on HOP-18 NSCLC; 2.19 µM with XF 498 CNS; 0.128 µM in the test with P388/ADR leukemia.

As to `O=C(Nc1nn[nH]n1)c1nc(-c2ccccc2)cc(=O)[nH]1`, the TGI in the test with XF 498 CNS, with LXFL 529 NSCLC and in the test with DMS 114 small cell lung was > 100 µM throughout.

`O=C1C2C=CC(n3[nH]c(=O)n(Cc4ccccc4)c3=O)CC2C(=O)N1c1ccc(Br)cc1` (stereo not drawn): the TGI in the test on DMS 273 small cell lung, in the test on HOP-18 NSCLC, with LXFL 529 NSCLC and in the test with DMS 114 small cell lung was > 100 µM each time.

In the case of `CCOC(=O)C1=C(O)c2ccc(C)cc2C(=O)C1=O`, the TGI in the test with DMS 273 small cell lung, in the test with HOP-18 NSCLC, in the test on XF 498 CNS and with DMS 114 small cell lung was > 100 µM in each case.

Regarding `CC1(C)O[C@@H](C[C@]2(C#N)C[C@H](CCl)OC(C)(C)O2)C[C@@H](C#N)O1`, the TGI with DMS 273 small cell lung, in the test on HOP-18 NSCLC, with XF 498 CNS and in the test on DMS 114 small cell lung was > 100 µM each time.

As to `CCCCN(C)/N=N/c1nc[nH]c1C(N)=O`, the TGI in the test with DMS 273 small cell lung is > 100 µM; in the test on SN12K1 renal it was > 100 µM; in the test with P388 leukemia, > 100 µM; with HOP-18 NSCLC, > 100 µM; with XF 498 CNS it was 95.5 µM; with DMS 114 small cell lung it was > 100 µM. The TGI in the test on P388/ADR leukemia is > 100 µM.

Take `[N-]=[N+]=NCC(O)Cn1cnc2c(NC(=O)c3ccccc3)ncnc21` (stereo not drawn): the TGI with DMS 273 small cell lung, with HOP-18 NSCLC, with XF 498 CNS, with LXFL 529 NSCLC and in the test on DMS 114 small cell lung was > 100 µM throughout.

As for `COc1ccc(Oc2ccccc2N)cc1`, the TGI in the test on RXF-631 renal, in the test with DMS 273 small cell lung, in the test with HOP-18 NSCLC, in the test on LXFL 529 NSCLC and with DMS 114 small cell lung was > 100 µM in each case.

On to `CSc1cnc2ccccc2c1Sc1c[nH]c2ccccc2c1=O`, for which the TGI was > 45.5 µM in the test on DMS 273 small cell lung, 67.8 µM with HOP-18 NSCLC, 46.3 µM in the test with LXFL 529 NSCLC and 32.9 µM in the test on DMS 114 small cell lung.

Consider `CCC(=O)OC1CCn2c1nc1c2C(=O)C(C)=C(NC(C)=O)C1=N` (stereo not drawn), for which the TGI is 3.11 µM in the test on DMS 273 small cell lung, 3.26 µM in the test on HOP-18 NSCLC, 4.31 µM with XF 498 CNS and 3.53 µM in the test on DMS 114 small cell lung.

These data come from PubChem BioAssay (NCI).
